Laboratory results from patent publication EP0193944A1, “Derivatives of 5-fluorouracil” (Nippon Kayaku Kabushiki Kaisha, priority 1985, dated 1986).

Test system: murine leukemia P388
Assay: Antitumor effect to murine leukemia P388 (survival of implanted mice, oral dosing)
Type: in vivo
Details: for Survival Rate (T/C x 100): orally once daily for 5 consecutive days, female CDF1-SLC mice, P 388 cells implanted subcutaneously
Experimental: Antitumor effect to murine leukemia P388. • Test compounds: 5-FU and compound No.1 (1-(4,4-dimethyl-6-oxo-l-cyclohexenyl)methylcarbamoyl-5-fluorouracil) • Method : 1 x 10^6 leukemia P 388 cells per mouse were implanted subcutaneously to female mice (CDFl-SLC strain, 18-21 g of weight). The control and test group consisted of 3 and 1 mice respectively. The compound No.l and 5-FU were dissolved in 100% dimethylsulfoxide respectively to be adjusted to various concentrations. The solution was administered orally to each mouse once daily for 5 consecutive days, starting 24 hours after the implantation.
Average period in days of survival in the group receiving the compound of this invention (T) and average period in days of survival in the control group (C) were determined to calculate survival rates (T/C x 100%).

Compound: O=c1[nH]cc(F)c(=O)[nH]1 [5-FU, 5-Fluorouracil]
- Survival Rate (T/C x 100) (Dose 2.7 mg/kg/inj): 101%
- Survival Rate (T/C x 100) (Dose 5.3 mg/kg/inj): 103%
- Survival Rate (T/C x 100) (Dose 10.5 mg/kg/inj): 103%
- Survival Rate (T/C x 100) (Dose 21 mg/kg/inj): 115%
- Survival Rate (T/C x 100) (Dose 42 mg/kg/inj): 64.7%
- Survival Rate (T/C x 100) (Dose 84 mg/kg/inj): 52.5%

Compound: CC1(C)CC=C(CNC(=O)n2cc(F)c(=O)[nH]c2=O)C(=O)C1 [Compound No.1, 1-(4,4-dimethyl-6-oxo-l-cyclohexenyl)methylcarbamoyl-5-fluorouracil]
- Survival Rate (T/C x 100) (Dose 25 mg/kg/inj): 115%
- Survival Rate (T/C x 100) (Dose 50 mg/kg/inj): 129%
- Survival Rate (T/C x 100) (Dose 100 mg/kg/inj): 151%
- Survival Rate (T/C x 100) (Dose 200 mg/kg/inj): 122%
- Survival Rate (T/C x 100) (Dose 400 mg/kg/inj): 71.9%
- toxicity compared with 5-FU (conclusion from the dose range in the P388 mouse model, oral): less toxic than 5-FU
